According to ChEMBL document CHEMBL1138973, “Opiate receptor binding properties of morphine-, dihydromorphine-, and codeine 6-O-sulfate ester congeners” (Bioorg Med Chem Lett, 2006):

What was measured:
[1] = target: Kappa-type opioid receptor (Cavia porcellus, UniProt P41144); test: Displacement of radiolabeled U69593 from kappa1 opioid receptor in Hartley guinea pig brain
Mu-type opioid receptor = Mu-type opioid receptor (Cavia porcellus, UniProt P97266); test: Displacement of radiolabeled DAMGO from mu opioid receptor in Hartley guinea pig brain
[2] = Plasma half life in rat; assay type: ADME, organism-based

Sequence of Mu-type opioid receptor (P97266 whole entry): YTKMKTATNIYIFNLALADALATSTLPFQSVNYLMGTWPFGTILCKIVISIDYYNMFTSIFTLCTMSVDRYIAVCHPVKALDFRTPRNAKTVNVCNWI
Sequence of Kappa-type opioid receptor (P41144 whole entry): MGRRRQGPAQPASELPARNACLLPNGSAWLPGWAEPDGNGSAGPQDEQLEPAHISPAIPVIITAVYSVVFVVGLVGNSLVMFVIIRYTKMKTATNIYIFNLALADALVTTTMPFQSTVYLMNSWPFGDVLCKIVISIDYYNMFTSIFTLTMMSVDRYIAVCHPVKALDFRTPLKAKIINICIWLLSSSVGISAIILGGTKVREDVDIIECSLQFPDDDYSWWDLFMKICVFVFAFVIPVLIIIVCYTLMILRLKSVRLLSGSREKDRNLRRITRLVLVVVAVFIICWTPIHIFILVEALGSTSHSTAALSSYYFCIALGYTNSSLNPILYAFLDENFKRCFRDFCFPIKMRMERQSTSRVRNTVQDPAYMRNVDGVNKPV

| Structure (SMILES) | Ki [1] | Ki (Mu-type opioid receptor) | half-life [2] |
| --- | --- | --- | --- |
| CN1CC[C@]23c4c5ccc(OS(=O)(=O)O)c4O[C@H]2[C@@H](O)C=C[C@H]3[C@H]1C5 | > 10 µM | 0.101 µM | – |
| COc1ccc2c3c1O[C@H]1[C@@H](OS(=O)(=O)O)CC[C@H]4[C@@H](C2)N(C)CC[C@@]341 | > 10 µM | 0.196 µM | – |
| COc1ccc2c3c1O[C@H]1[C@@H](OS(=O)(=O)O)C=C[C@H]4[C@@H](C2)N(C)CC[C@@]341 | > 10 µM | 0.0387 µM | – |
| CN1CC[C@]23c4c5ccc(O)c4O[C@H]2[C@@H](OS(=O)(=O)O)C=C[C@H]3[C@H]1C5 | – | 0.0009 µM | – |
| CC1(C)SSC(C)(C)[C@@H](NC(=O)[C@@H](N)Cc2ccc(O)cc2)C(=O)NCC(=O)N[C@@H](Cc2ccc(Cl)cc2)C(=O)N[C@H]1C(=O)O | > 10 µM | – | – |
| CN1CC[C@]23c4c5ccc(OC(=O)c6ccccc6)c4O[C@H]2[C@@H](OS(=O)(=O)O)C=C[C@H]3[C@H]1C5 | > 10 µM | 0.0369 µM | – |
| C[N+]1(C)CC[C@]23c4c5ccc(OC(=O)c6ccccc6)c4O[C@H]2[C@@H](OS(=O)(=O)[O-])C=C[C@H]3[C@H]1C5 | > 10 µM | 0.444 µM | – |
| CC(C)C(=O)Oc1ccc2c3c1O[C@H]1[C@@H](OS(=O)(=O)O)C=C[C@H]4[C@@H](C2)N(C)CC[C@@]341 | – | 0.0198 µM | – |
| CN1CC[C@]23c4c5ccc(OC(=O)C(C)(C)C)c4O[C@H]2[C@@H](OS(=O)(=O)O)C=C[C@H]3[C@H]1C5 | – | 0.0007 µM | – |
| CN1CC[C@]23c4c5ccc(OC(=O)c6ccccc6)c4O[C@H]2[C@@H](OS(=O)(=O)O)CC[C@H]3[C@H]1C5 | > 10 µM | 0.0618 µM | – |
| CC(=O)Oc1ccc2c3c1O[C@H]1[C@@H](OS(=O)(=O)O)C=C[C@H]4[C@@H](C2)N(C)CC[C@@]341 | – | 0.0008 µM | > 1 h |
| C=CCN1CCC23c4c5ccc(O)c4O[C@@H]2/C(=N/NC(=O)c2ccccc2)CCC3(O)C1C5 (some centres undefined) | 0.0004 µM | 0.0002 µM | – |
| CC(=O)Oc1ccc2c3c1O[C@H]1[C@@H](OS(=O)(=O)[O-])C=C[C@H]4[C@@H](C2)[N+](C)(C)CC[C@@]341 | > 10 µM | 0.0342 µM | > 1 h |
| CCC(=O)Oc1ccc2c3c1O[C@H]1[C@@H](OS(=O)(=O)O)C=C[C@H]4[C@@H](C2)N(C)CC[C@@]341 | – | 0.0006 µM | – |
| CN1CC[C@]23c4c5ccc(O)c4O[C@H]2[C@@H](OS(=O)(=O)O)CC[C@H]3[C@H]1C5 | 3.13 µM | 0.0015 µM | – |
| CC(=O)Oc1ccc2c3c1O[C@H]1[C@@H](OS(=O)(=O)O)CC[C@H]4[C@@H](C2)N(C)CC[C@@]341 | > 10 µM | 0.0137 µM | > 1 h |
